The subject of one data set is OVCA432. The data set is described as follows: Antiproliferation assay, ovarian cancer cells. The conditions noted are these: ovarian cancer cell proliferation. The data set is classed as cell-based. How it is done: (§1) The pancreatic cancer cell lines BxPc-3, HupT3, MiaPaCa-2, Panc 04.03, and SU86.86 were obtained from ATCC (Rockville, Md.) and were grown in medium (DMEM or RPMI) containing 10% fetal calf serum and L-glutamine. Pancreatic cancer cells were plated out in duplicate into 6-wells of a 96-well microtiter plate at 2.5−4×10^3 cells per well. Four-hours post plating, individual wells were treated with diluent (DMSO) or varying concentrations of commercial compounds, AR-A014418 and SB216763, or the indicated GSK inhibitors of this invention from a concentration of 1 nM to 50 microM. […] The IC50s were calculated using XLfit (IDBS Limited, Guildford, UK).
(§2) Similar antiproliferation assays were performed using ovarian cancer cells. Compound 40 is of particular interest for inhibition of ovarian cancer cell proliferation.

The subject of a further data set is SKOV3. The experiment in a line: Antiproliferation assay, ovarian cancer cells. The conditions noted are these: Homo sapiens, SK-OV-3; ovarian cancer cell proliferation. The format is cell-based. As for the experimental part:
as §1, §2

For data set [1], the system named is M-17 cancer cells co-transfected with α-Syn and DAT. The experiment in a line: Neuroprotection against MPP+-mediated cell death, MTT assay. The data set is classed as cell-based. As to conditions: MPP+ 48 h, inhibitor 0.1-10,000 nM. From the text:
GSK-3β inhibitors are examined for their capacity to interfere with two of the regulated processes playing an important role in the MPP+-induced model (MPP+ is N-methyl-4-phenylpyridinium) of neurodegeneration: Tau phosphorylation at the PHF-1 binding site (PHF-Tau; epitope which belongs to AD-like Tau antigenicity) and α-Syn-induced toxicity. Compounds are screened in in vitro assays, where their neuroprotective effects to protect against MPP+-mediated cell death was estimated. The cell assays are conducted as follows: M-17 cancer cells are co-transfected with α-Syn and DAT at a 3:1 DNA mimicking that found in Substantia nigra ratio, as we have described previously (Wersinger, C., et al The FASEB journal 2003, 17, 2151-2153). Cells are treated with MPP^+ for 48 h in the absence and presence of increasing amounts of GSK-3β inhibitors [0.1-10,000 nM], and cell death was measured by MTT (Thiazolyl Blue Tetrazolium Bromide) assays. Under these conditions, MPP^+ caused ˜80% cell death.
In general terms: Formazan colour is commonly taken as a measure of viable cells.

The target of another data set is CDK-2/cyclinA (Homo sapiens, UniProt P24941). The data set is described as follows: CDK panel (Reaction Biology). The data set is classed as biochemical. As to conditions: tested at Reaction Biology, Inc.
The next data set has as its target CDK-4/cyclinD1 (Homo sapiens, UniProt P11802). The experiment in a line: CDK panel (Reaction Biology). The data set is classed as biochemical. As to conditions: tested at Reaction Biology, Inc.
For a further data set, the target named is CDK-3/cyclinE (Homo sapiens, UniProt Q00526). The experiment in a line: biochemical.
For a further data set, the target named is CDK-5/P25 (Homo sapiens, UniProt Q00535). The data set is described as follows: CDK panel (Reaction Biology). The data set is classed as biochemical. As to conditions: tested at Reaction Biology, Inc.
A further data set has as its target CDK-1/cyclinB (Homo sapiens, UniProt P06493). The data set is described as follows: CDK panel (Reaction Biology). The format is biochemical. As to conditions: tested at Reaction Biology, Inc.
The next data set deals with CDK-2/cyclinE (Homo sapiens, UniProt P24941). The experiment in a line: CDK-2/CyclinE inhibition (Reaction Biology). The conditions noted are these: tested at Reaction Biology, Inc. The format is biochemical.
The target of another data set is CDK-9/cyclinT1 (Homo sapiens, UniProt P50750). The experiment in a line: CDK panel (Reaction Biology). The format is biochemical. As to conditions: tested at Reaction Biology, Inc.
The next data set deals with CDK-5/P35 (Homo sapiens, UniProt Q00535). The data set is described as follows: CDK panel (Reaction Biology). As to conditions: tested at Reaction Biology, Inc. The format is biochemical.
In data set [2] the target is T1, recombinant human His6-GSK-3β (Homo sapiens, UniProt P49841).
T1 construct: His6; purchased EMD Biosciences
The experiment in a line: GSK-3β kinase assay, [γ32P] transfer to primed glycogen synthase peptide.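 Further: phosphate incorporation quantified by liquid scintillation counting of the filters.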 The conditions noted are these: 10 μM ATP; 10 μM pGSM peptide; 30 minutes at 30° C.; read-out: IC50 (nM), GSK-3β inhibition. The format is biochemical.

In the next data set the target is CDK-6/cyclinD3 (Homo sapiens, UniProt Q00534). The experiment in a line: CDK panel (Reaction Biology). The format is biochemical. The conditions noted are these: tested at Reaction Biology, Inc.
The target in the next data set is CDK2/A (Homo sapiens, UniProt P24941). The data set is described as follows: Kinase panel (Novartis). The format is biochemical.
The subject of the next data set is C57BL/6J mice. The experiment in a line: Amphetamine/chlordiazepoxide hyperactivity model of mania, open field locomotor activity. The format is in vivo. As to conditions: 5-ING-135 50 mg/kg, 5 min pretreatment; amphetamine 4 mg/kg + chlordiazepoxide 2.5 mg/kg; 60 min. How it is done:
Hyperactivity models are often used to mimic the mania associated with bipolar disorder.
Certain benzofuran-based ligands of this invention were studied in a novel mouse model of mania that has recently been validated with several clinically effective mood stabilizers. […] Mice were then injected with amphetamine (4 mg/kg) or amphetamine (4 mg/kg) and chlordiazepoxide (2.5 mg/kg) and locomotor activity was monitored for 60 min. The open field is a square box surrounded by an array of infra-red beams and their behavior is automatically recorded for 60 minutes in the open field test chamber (10.75″×10.75″×8″H with infra-red (I/R) array, model ENV 510, MED Associates). After this period the animals were returned to their home cages and then to the main colony.
Control treatments are as indicated. FIG. 1B illustrates similar locomotion activity data of treated mice measured in cm over 5 minute intervals for 60 minutes.

The target in a further data set is HER-1 (Homo sapiens, UniProt P00533). The experiment in a line: Kinase panel (Novartis). The data set is classed as biochemical.
A short description of data set [3]: Passage of the brain-blood barrier in animal models. The data set is classed as in vivo. As to conditions: as assessed in animal models.
In another data set the test system is HupT3. The experiment in a line: Antiproliferation MTS assay, pancreatic cancer cells. The data set is classed as cell-based. The conditions noted are these: Homo sapiens, HuP-T3, as reported in Gaisina et al. (2009) J. Med. Chem. 52(7), 1853-1863.
In another data set the target is KDR (Homo sapiens, UniProt P35968). The data set is described as follows: Kinase panel (Novartis). The data set is classed as biochemical.
The target of another data set is c-Met (Homo sapiens, UniProt P08581). The data set is described as follows: Kinase panel (Novartis). The format is biochemical.
Another data set concerns the target Ret (Homo sapiens, UniProt P07949). The data set is described as follows: Kinase panel (Novartis). The format is biochemical.
For a further data set, the target named is IGF-1R (Homo sapiens, UniProt P08069). The data set is described as follows: Kinase panel (Novartis). The data set is classed as biochemical.
The target in another data set is JNK1 (Homo sapiens, UniProt P45983). The experiment in a line: Kinase panel (Novartis). The format is biochemical.
The target in a further data set is FGFR-3-K650E (Homo sapiens, UniProt P22607, K650E). The experiment in a line: Kinase panel (Novartis). The format is biochemical.
The next data set concerns the target Tek (Homo sapiens, UniProt Q02763). The data set is described as follows: Kinase panel (Novartis). The data set is classed as biochemical.
Another data set has as its target b-Raf-V599E (Homo sapiens, UniProt P15056, V600E). The data set is described as follows: Kinase panel (Novartis). The data set is classed as biochemical.
A further data set addresses Flt-3 (Homo sapiens, UniProt P36888). The experiment in a line: Kinase panel (Novartis). The format is biochemical.
The target in the next data set is FAK (Homo sapiens, UniProt Q05397). The experiment in a line: Kinase panel (Novartis). The data set is classed as biochemical.
The next data set concerns the target Axl (Homo sapiens, UniProt P30530). The data set is described as follows: Kinase panel (Novartis). The format is biochemical.
Another data set concerns the target T2, PDK1 (Homo sapiens, UniProt O15530).
T2 sequence (O15530 1-556): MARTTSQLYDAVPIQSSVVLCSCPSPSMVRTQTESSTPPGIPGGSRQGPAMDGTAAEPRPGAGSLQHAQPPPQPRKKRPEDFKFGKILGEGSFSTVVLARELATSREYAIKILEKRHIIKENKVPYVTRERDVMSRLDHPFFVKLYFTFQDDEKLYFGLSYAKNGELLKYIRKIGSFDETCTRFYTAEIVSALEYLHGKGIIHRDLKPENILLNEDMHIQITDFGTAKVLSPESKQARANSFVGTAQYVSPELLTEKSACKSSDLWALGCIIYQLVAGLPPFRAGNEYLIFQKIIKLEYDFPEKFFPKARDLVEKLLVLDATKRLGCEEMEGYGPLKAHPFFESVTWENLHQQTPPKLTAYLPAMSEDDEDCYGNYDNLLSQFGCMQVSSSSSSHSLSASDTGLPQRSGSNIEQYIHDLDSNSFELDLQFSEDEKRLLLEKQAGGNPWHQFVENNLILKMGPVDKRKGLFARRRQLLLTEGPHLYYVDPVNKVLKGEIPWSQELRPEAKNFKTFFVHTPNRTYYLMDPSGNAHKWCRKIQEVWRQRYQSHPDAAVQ
The data set is described as follows: Kinase panel (Novartis). The format is biochemical.

A further data set concerns the target JAK-2 (Homo sapiens, UniProt O60674). The data set is described as follows: Kinase panel (Novartis). The data set is classed as biochemical.
Another data set deals with c-src (Homo sapiens, UniProt P12931). The experiment in a line: Kinase panel (Novartis). The format is biochemical.
The next data set deals with c-Abl-T3151 (Homo sapiens, UniProt P00519, T315I). The data set is described as follows: Kinase panel (Novartis). The format is biochemical.
A further data set has as its target PKCα (Homo sapiens, UniProt P17252). The experiment in a line: Kinase panel (Novartis). The format is biochemical.
Another data set has as its target c-Abl (Homo sapiens, UniProt P00519). The data set is described as follows: Kinase panel (Novartis). The format is biochemical.
The target in a further data set is EphB4 (Homo sapiens, UniProt P54760). The experiment in a line: Kinase panel (Novartis). The format is biochemical.
For another data set, the system named is MIAPaCa-2. The experiment in a line: Antiproliferation MTS assay, pancreatic cancer cells. The format is cell-based. As to conditions: Homo sapiens.

Some results are limits rather than exact numbers.

Chain of b-Raf-V599E (P15056 whole entry V600E): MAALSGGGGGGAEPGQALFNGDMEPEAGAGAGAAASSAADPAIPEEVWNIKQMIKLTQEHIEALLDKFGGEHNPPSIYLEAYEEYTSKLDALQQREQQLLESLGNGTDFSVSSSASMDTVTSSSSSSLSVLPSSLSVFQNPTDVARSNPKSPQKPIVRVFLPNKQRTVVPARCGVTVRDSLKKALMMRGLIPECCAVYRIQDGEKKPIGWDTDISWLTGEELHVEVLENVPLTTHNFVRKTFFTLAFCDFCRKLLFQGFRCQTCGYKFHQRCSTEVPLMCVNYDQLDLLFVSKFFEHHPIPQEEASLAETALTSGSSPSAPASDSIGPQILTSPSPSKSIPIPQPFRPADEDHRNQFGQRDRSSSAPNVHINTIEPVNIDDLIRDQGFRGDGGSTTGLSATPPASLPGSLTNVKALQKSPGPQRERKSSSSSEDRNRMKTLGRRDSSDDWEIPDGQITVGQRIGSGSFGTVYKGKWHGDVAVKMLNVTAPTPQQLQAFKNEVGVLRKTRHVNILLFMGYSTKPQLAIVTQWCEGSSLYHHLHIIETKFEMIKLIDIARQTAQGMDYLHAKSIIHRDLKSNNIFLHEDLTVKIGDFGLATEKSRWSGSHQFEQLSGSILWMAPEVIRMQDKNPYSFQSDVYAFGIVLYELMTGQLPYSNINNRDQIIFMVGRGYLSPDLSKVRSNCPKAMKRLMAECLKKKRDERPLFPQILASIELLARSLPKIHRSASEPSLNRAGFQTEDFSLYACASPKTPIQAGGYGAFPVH
T1 sequence (P49841 whole entry): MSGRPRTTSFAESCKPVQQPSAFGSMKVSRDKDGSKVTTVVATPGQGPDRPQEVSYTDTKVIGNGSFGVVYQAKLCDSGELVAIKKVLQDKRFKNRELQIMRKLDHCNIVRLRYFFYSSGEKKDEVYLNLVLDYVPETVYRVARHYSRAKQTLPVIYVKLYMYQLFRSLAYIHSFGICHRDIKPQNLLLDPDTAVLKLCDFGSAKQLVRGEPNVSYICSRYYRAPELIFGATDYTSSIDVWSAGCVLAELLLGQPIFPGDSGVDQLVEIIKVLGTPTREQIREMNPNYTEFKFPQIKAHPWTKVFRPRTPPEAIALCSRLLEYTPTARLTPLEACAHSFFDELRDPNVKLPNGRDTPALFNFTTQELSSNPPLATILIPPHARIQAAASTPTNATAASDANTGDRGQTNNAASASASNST
Chain of JNK1 (P45983 whole entry, species assumed): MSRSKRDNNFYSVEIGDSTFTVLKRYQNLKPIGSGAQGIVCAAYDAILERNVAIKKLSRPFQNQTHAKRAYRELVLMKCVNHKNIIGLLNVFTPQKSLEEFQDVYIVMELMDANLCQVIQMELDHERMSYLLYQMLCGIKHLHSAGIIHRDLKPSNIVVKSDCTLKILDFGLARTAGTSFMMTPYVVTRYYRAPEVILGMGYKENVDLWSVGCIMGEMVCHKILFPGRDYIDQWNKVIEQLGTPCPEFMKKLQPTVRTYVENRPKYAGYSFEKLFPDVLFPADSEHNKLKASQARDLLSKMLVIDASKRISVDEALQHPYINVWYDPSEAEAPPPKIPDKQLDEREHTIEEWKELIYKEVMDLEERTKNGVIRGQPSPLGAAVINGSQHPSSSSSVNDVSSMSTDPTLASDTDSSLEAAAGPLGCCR
Chain of JAK-2 (O60674 whole entry, species assumed): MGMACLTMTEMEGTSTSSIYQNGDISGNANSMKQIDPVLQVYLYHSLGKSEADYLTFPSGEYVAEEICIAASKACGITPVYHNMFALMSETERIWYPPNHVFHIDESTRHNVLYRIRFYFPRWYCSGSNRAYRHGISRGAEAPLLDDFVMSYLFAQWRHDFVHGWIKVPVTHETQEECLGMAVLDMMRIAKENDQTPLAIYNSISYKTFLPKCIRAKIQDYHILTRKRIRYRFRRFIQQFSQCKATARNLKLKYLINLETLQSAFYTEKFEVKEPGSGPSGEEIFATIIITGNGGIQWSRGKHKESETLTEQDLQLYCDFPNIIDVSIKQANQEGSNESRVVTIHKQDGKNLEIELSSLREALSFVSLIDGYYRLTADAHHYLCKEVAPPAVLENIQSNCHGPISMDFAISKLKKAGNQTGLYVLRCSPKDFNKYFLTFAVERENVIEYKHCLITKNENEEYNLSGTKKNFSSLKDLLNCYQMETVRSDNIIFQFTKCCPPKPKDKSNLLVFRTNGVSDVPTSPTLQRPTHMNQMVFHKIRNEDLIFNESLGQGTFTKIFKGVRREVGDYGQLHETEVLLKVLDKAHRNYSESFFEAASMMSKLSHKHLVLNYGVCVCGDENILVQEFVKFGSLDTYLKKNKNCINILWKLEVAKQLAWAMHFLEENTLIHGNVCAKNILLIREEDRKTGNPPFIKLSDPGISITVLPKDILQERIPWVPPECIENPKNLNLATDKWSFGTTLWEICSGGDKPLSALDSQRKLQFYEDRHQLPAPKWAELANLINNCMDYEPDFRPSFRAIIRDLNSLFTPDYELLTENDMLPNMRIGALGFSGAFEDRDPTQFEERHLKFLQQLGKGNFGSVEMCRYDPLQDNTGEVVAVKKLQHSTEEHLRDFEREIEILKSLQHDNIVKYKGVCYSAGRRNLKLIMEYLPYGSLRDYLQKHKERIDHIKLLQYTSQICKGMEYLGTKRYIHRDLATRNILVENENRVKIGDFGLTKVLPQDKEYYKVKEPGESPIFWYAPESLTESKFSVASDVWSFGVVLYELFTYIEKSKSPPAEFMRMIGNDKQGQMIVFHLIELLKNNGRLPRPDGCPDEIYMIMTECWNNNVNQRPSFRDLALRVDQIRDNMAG
Chain of c-Met (P08581 25-1390): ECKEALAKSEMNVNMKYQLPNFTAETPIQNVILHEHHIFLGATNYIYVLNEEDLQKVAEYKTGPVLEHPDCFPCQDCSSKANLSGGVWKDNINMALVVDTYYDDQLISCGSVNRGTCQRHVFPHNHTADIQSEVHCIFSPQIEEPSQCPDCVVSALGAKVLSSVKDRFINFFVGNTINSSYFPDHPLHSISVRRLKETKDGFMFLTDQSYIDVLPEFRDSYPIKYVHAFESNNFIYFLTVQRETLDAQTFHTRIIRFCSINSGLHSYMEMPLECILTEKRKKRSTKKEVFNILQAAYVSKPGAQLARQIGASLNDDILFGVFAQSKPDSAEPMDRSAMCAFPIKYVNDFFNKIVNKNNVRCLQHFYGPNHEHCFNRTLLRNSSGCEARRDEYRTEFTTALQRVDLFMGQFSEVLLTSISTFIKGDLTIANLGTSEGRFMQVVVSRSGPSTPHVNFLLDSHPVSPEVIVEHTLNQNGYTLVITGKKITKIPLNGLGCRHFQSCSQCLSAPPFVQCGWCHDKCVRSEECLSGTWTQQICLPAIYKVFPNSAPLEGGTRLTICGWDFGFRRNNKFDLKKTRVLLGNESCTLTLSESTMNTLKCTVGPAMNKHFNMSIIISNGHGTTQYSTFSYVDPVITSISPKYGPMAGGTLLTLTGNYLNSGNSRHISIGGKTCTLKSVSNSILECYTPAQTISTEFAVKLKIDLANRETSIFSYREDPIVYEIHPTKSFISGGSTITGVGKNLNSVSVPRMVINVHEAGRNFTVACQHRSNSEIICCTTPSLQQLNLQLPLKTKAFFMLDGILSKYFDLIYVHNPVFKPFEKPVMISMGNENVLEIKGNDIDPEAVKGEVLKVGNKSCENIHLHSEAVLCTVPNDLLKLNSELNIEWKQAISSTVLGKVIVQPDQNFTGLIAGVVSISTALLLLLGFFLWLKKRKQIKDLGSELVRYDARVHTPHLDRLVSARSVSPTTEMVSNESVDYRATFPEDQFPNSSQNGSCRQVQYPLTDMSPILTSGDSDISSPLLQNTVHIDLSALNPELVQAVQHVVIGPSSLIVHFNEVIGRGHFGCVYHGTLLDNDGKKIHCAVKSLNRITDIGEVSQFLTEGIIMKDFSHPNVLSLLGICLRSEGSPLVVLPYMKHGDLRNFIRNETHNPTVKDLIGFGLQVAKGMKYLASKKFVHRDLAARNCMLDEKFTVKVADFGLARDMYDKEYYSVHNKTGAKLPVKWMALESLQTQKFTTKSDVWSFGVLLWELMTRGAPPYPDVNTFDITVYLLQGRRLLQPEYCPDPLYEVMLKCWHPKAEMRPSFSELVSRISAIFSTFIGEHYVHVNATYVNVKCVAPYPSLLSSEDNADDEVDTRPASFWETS

Regarding `COc1cccc2c(C3=C(c4cn(C)c5cc(Cl)c(F)cc45)C(=O)NC3=O)coc12` [Compound 15, 3-(6-Chloro-5-fluoro-1-methyl-1H-indol-3-yl)-4-(7-methoxy-benzofuran-3-yl)-pyrrole-2,5-dione], the IC50 in the data set with OVCA432 is 10.7 µM; in the data set on SKOV3, 42.7 µM; against CDK-2/cyclinA it was 27.2 µM; on CDK-4/cyclinD1, 59.5 µM; against CDK-3/cyclinE it was greater than 100 µM; against CDK-5/P25, 108 µM. Moreover, the IC50 is 46.2 µM on CDK-1/cyclinB; 99000 nM against CDK-2/cyclinE; greater than 100 µM against CDK-9/cyclinT1; 61.6 µM on CDK-5/P35; 260 ± 32 nM in [2]; 165 µM on CDK-6/cyclinD3. Moreover, in [1], the “Neuroprotection against MPP+ (percent cell recovery, FIG. 2)” value is recorded as “neuroprotection of the cells”.

In the case of `Cn1cc(C2=C(c3coc4ccccc34)C(=O)NC2=O)c2cc(Br)ccc21` [Compound 19, 3-Benzofuran-3-yl-4-(5-bromo-1-methyl-1H-indol-3-yl)-pyrrole-2,5-dione], the concentration for half-maximal inhibition (IC50) against CDK2/A was 3.98 µM; in the data set on OVCA432, 33.6 µM; with SKOV3 it was 74.5 µM; against HER-1 it was greater than 10 µM; with HupT3, 43 ± 6.3 µM; at KDR, greater than 10 µM. In addition, the IC50 against c-Met, at Ret, against IGF-1R, against JNK1, on FGFR-3-K650E and at Tek was greater than 10 µM in each case. The IC50 against b-Raf-V599E, at Flt-3, against FAK, at Axl, against PDK1 and at JAK-2 was greater than 10 µM throughout. The 50% inhibitory concentration (IC50) at c-src was greater than 10 µM; on c-Abl-T3151 it was greater than 10 µM; on PKCα it was 61.4 µM; at c-Abl, greater than 10 µM; against EphB4 it was greater than 10 µM; with MIAPaCa-2 (MIA PaCa-2, as reported in Gaisina et al. (2009) J. Med. Chem. 52(7), 1853-1863), 30 ± 2.2 µM. Besides, in the data set with MIAPaCa-2 (MIA PaCa-2, 72 hrs, MTS), the IC50 came to 30 µM. At CDK2/A, the affinity, expressed as Ki, was 189 nM. For the same compound, the “Inhibition of hyperactivity produced by amphetamine/chlordiazepoxide (locomotor activity)” value with C57BL/6J mice is given as “inhibited the hyperactivity”. The “Ability to pass the brain-blood barrier” value in [3] is listed as “ability to pass the brain-blood barrier”.

For orientation: IC50 means the midpoint of a concentration-inhibition curve. The Ki is the dissociation constant of the complex between target and ligand, obtained from inhibition or displacement.

The values above are taken from patent US8207216B2, “Benzofuran-3-yl(indol-3-yl) maleimides as potent GSK3 inhibitors” (The Board of Trustees of the University of Illinois, priority 2006, dated 2012).
